Results as given in patent US10988477B2 (Merck Patent GmbH, priority 2018, dated 2021).

Columns and labels:
GCN2 kinase = GCN2 kinase (Homo sapiens, UniProt Q9P2K8); experiment: GCN2 enzyme inhibition assay (Transcreener ADP2 fluorescence polarization); type: biochemical; details: compounds of Formula II; 280 μM ATP, 4 nM GCN2 kinase
Outline: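 ADP formation read by Transcreener FP after a 1 h, 25 °C kinase reaction containing 280 μM ATP, 200 μM (RS)7 substrate and 4 nM GCN2, pH 7.5 Tris buffer. Compounds (0–8 μM final) were added 10 min before ATP. Percent inhibition gave IC50 and apparent Ki via tight-binding fit.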

[1] = target: intracellular GCN2 (phosphorylation of the GCN2 substrate eIF2α) (Homo sapiens, UniProt Q9P2K8); experiment: GCN2 cellular inhibition assay (AlphaScreen SureFire P-eIF2α Ser51, borrelidin-treated U2OS cells); type: cell-based; details: compounds of Formula II; biomarker assay, phosphorylated eIF2α Ser51 in borrelidin-treated U2OS cells
Outline: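 Borrelidin at 10 μM is added to U2OS cells immediately after compound (4-fold dilution series, 40 μM top final) for 1 h at 37 °C. Phosphorylated eIF2α Ser51 in lysates is quantified by AlphaScreen and expressed as percent inhibition against borrelidin-stimulated controls.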

Sequence of GCN2 kinase (Q9P2K8 whole entry): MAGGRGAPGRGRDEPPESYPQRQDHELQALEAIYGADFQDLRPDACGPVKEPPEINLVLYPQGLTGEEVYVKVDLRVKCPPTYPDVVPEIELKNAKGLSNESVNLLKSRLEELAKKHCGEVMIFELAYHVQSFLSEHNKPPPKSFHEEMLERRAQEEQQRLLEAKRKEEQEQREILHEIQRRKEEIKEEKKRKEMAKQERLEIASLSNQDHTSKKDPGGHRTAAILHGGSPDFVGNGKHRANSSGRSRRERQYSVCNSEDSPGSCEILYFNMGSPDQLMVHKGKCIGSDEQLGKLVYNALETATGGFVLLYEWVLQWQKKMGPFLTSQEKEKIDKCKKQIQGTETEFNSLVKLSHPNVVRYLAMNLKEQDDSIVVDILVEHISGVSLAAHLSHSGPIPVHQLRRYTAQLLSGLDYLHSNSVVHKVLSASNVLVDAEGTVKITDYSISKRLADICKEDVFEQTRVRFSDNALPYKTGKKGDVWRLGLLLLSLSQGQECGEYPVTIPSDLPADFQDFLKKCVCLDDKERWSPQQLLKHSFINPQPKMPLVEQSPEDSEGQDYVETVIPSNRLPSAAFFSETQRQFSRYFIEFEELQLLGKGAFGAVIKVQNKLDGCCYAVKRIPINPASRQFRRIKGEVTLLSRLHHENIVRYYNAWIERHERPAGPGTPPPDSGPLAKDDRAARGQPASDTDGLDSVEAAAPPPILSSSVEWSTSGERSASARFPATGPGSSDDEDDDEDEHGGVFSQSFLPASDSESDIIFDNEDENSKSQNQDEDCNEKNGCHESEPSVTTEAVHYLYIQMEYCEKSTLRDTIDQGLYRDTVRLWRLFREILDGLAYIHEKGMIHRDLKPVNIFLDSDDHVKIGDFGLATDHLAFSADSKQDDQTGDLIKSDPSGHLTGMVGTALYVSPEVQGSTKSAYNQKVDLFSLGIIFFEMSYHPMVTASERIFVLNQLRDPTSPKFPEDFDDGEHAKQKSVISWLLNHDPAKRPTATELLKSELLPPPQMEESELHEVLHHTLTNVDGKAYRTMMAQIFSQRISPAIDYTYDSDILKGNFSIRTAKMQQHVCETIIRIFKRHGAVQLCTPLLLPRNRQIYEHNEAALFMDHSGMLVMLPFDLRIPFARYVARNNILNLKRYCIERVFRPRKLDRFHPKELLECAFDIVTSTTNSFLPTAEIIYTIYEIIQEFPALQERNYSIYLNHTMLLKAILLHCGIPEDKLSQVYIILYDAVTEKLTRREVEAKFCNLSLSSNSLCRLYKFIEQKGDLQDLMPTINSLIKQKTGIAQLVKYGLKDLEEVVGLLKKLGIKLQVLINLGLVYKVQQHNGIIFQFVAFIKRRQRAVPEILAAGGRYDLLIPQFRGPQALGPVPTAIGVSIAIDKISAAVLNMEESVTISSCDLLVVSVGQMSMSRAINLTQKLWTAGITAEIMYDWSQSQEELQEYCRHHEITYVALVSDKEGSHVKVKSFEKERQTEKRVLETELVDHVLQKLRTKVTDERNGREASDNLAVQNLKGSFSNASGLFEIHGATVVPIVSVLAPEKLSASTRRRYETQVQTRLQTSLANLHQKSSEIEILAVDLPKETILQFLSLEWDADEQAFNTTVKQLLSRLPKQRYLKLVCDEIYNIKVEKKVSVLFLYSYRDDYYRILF
Sequence of intracellular GCN2 (phosphorylation of the GCN2 substrate eIF2α) (Q9P2K8 whole entry): as above

| SMILES | Ki (GCN2 kinase) | IC50 [1] |
| --- | --- | --- |
| CC1C(CNS(C)(=O)=O)C(C)(O)C(C)CN1c1cc(-c2cnc3ccc(C(F)F)nn23)ncn1 (stereo not shown) [II-618, N-((1-(6-(6-(Difluoromethyl)imidazo[1,2-b]pyridazin-3-yl)pyrimidin-4-yl)-4-hydroxy-2,4,5-trimethylpiperidin-3-yl)methyl)methanesulfonamide] | < 0.01 µM | < 0.5 µM |
| N=S1(=O)CCN(c2cc(-c3cnc4ccc(C(F)F)nn34)ncn2)CC1 [II-676, 4-[6-[6-(Difluoromethyl)imidazo[1,2-b]pyridazin-3-yl]pyrimidin-4-yl]-1-imino-1,4-thiazinane 1-oxide] | 0.01 to 1 µM | > 5 µM |
| CS(=O)(=O)NCC1CCCN(c2cc(-c3cnc4ccc(C#N)nn34)ncn2)C1 (stereo not shown) [II-692, N-[[1-[6-(6-Cyanoimidazo[1,2-b]pyridazin-3-yl)pyrimidin-4-yl]-3-piperidyl]methyl]methanesulfonamide] | 0.01 to 1 µM | 0.5 to 5 µM |
| CC1CN(c2cc(-c3cnc4ccc(C#N)nn34)ncn2)C(C)C(c2cn[nH]c2)N1 (stereo not shown) [II-693] | 0.01 to 1 µM | 0.5 to 5 µM |
| CS(C)(=O)=NC1CC(C(F)(F)F)CN(c2cc(-c3cnc4ccc(C(F)F)nn34)ncn2)C1 (stereo not shown) [II-695, ((1-(6-(6-(Difluoromethyl)imidazo[1,2-b]pyridazin-3-yl)pyrimidin-4-yl)-5-(trifluoromethyl)piperidin-3-yl)imino)dimethyl-λ^6-sulfanone] | < 0.01 µM | 0.5 to 5 µM |
| CC1CCC(N=S(C)(C)=O)CN1c1cc(-c2cnc3ccc(C(F)F)nn23)ncn1 (stereo not shown) [II-696, [1-[6-[6-(Difluoromethyl)imidazo[1,2-b]pyridazin-3-yl]pyrimidin-4-yl]-6-methyl-3-piperidyl]imino-dimethyl-λ^6-sulfanone] | 0.01 to 1 µM | > 5 µM |
| CC1CN(c2cc(-c3cnc4ccc(C(F)(F)F)nn34)ncn2)C(C)C(c2cn[nH]c2)N1 (stereo not shown) [II-698] | < 0.01 µM | 0.5 to 5 µM |
| N#Cc1ccc2ncc(-c3cc(N4CCN5C(=O)CCCC5C4)ncn3)n2n1 (stereo not shown) [II-699, 3-(6-(6-Oxooctahydro-2H-pyrido[1,2-a]pyrazin-2-yl)pyrimidin-4-yl)imidazo[1,2-b]pyridazine-6-carbonitrile] | 0.01 to 1 µM | > 5 µM |
| CS(C)(=O)=NC1CCCN(c2cc(-c3cnc4ccc(C(F)F)nn34)ncn2)C1C(F)F (stereo not shown) [II-700, [2-(Difluoromethyl)-1-[6-[6-(difluoromethyl)imidazo[1,2-b]pyridazin-3-yl]pyrimidin-4-yl]-3-piperidyl]imino-dimethyl-λ^6-sulfanone] | < 0.01 µM | < 0.5 µM |
| CS(C)(=O)=NC1CCCN(c2cc(-c3cnc4ccc(C(F)F)nn34)ncn2)C1C(F)F (stereo not shown) [II-701, [2-(Difluoromethyl)-1-[6-[6-(difluoromethyl)imidazo[1,2-b]pyridazin-3-yl]pyrimidin-4-yl]-3-piperidyl]imino-dimethyl-λ^6-sulfanone] | 0.01 to 1 µM | > 5 µM |
| CC1CN(c2cc(-c3cnc4ccc(C(F)(F)F)nn34)ncn2)C(C)C(c2cn[nH]c2)N1 (stereo not shown) [II-704, 3-(6-(2,5-Dimethyl-3-(1H-pyrazol-4-yl)piperazin-1-yl)pyrimidin-4-yl)-6-(trifluoromethyl)imidazo[1,2-b]pyridazine] | 0.01 to 1 µM | > 5 µM |
| CC1CN(c2cc(-c3cnc4ccc(C(F)(F)F)nn34)ncn2)C(C)C(c2cn[nH]c2)N1 (stereo not shown) [II-705, 3-(6-(2,5-Dimethyl-3-(1H-pyrazol-4-yl)piperazin-1-yl)pyrimidin-4-yl)-6-(trifluoromethyl)imidazo[1,2-b]pyridazine] | < 0.01 µM | < 0.5 µM |
| CC1C(c2cn[nH]c2)NCCN1c1cc(-c2cnc3ccc(C(F)(F)F)nn23)ncn1 (stereo not shown) [II-706, 3-(6-(2-Methyl-3-(1H-pyrazol-4-yl)piperazin-1-yl)pyrimidin-4-yl)-6-(trifluoromethyl)imidazo[1,2-b]pyridazine] | 0.01 to 1 µM | 0.5 to 5 µM |
| CC1NCCN(c2cc(-c3cnc4ccc(C(F)(F)F)nn34)ncn2)C1c1cn[nH]c1 (stereo not shown) [II-707, 3-(6-(3-Methyl-2-(1H-pyrazol-4-yl)piperazin-1-yl)pyrimidin-4-yl)-6-(trifluoromethyl)imidazo[1,2-b]pyridazine] | 0.01 to 1 µM | > 5 µM |
| FC(F)c1ccc2ncc(-c3cc(-c4cnn(C5CCOCC5)c4)ncn3)n2n1 [II-709, 6-(Difluoromethyl)-3-[6-(1-tetrahydropyran-4-ylpyrazol-4-yl)pyrimidin-4-yl]imidazo[1,2-b]pyridazine] | 0.01 to 1 µM | 0.5 to 5 µM |
| CC1CC(P(C)(C)=O)CN(c2cc(-c3cnc4ccc(C(F)F)nn34)ncn2)C1 (stereo not shown) [II-710, 6-(Difluoromethyl)-3-[6-(3-dimethylphosphoryl-5-methyl-1-piperidyl)pyrimidin-4-yl]imidazo[1,2-b]pyridazine] | 0.01 to 1 µM | 0.5 to 5 µM |

| SMILES | Ki (GCN2 kinase) | IC50 [1] |
| --- | --- | --- |
| CC1CC(P(C)(C)=O)CN(c2cc(-c3cnc4ccc(C(F)F)nn34)ncn2)C1 (stereo not shown) [II-711, 6-(Difluoromethyl)-3-[6-(3-dimethylphosphoryl-5-methyl-1-piperidyl)pyrimidin-4-yl]imidazo[1,2-b]pyridazine] | 0.01 to 1 µM | 0.5 to 5 µM |
| FC(F)(F)c1ccc2ncc(-c3cc(N4CCCC(c5c[nH]cn5)C4)ncn3)n2n1 (stereo not shown) [II-715] | 0.01 to 1 µM | 0.5 to 5 µM |
| CC1CC(N=S(C)(C)=O)CN(c2cc(-c3cnc4ccc(C(F)F)nn34)ccn2)C1 (stereo not shown) [II-716, ((1-(4-(6-(Difluoromethyl)imidazo[1,2-b]pyridazin-3-yl)pyridin-2-yl)-5-methylpiperidin-3-yl)imino)dimethyl-λ^6-sulfanone] | < 0.01 µM | < 0.5 µM |
| CC1CC(C(=O)O)C(C)N(c2cc(-c3cnc4ccc(C(F)(F)F)nn34)ncn2)C1 (stereo not shown) [II-721, 2,5-Dimethyl-1-[6-[6-(trifluoromethyl)imidazo[1,2-b]pyridazin-3-yl]pyrimidin-4-yl]piperidine-3-carboxylic acid] | 0.01 to 1 µM | 0.5 to 5 µM |
| CC1CC(N=S(C)(C)=O)CN(c2cc(-c3cnc4ccc(C(N)=O)nn34)ncn2)C1 (stereo not shown) [II-726, 3-(6-(3-((Dimethyl(oxo)-λ^6-sulfanylidene)amino)-5-methylpiperidin-1-yl)pyrimidin-4-yl)imidazo[1,2-b]pyridazine-6-carboxamide] | 0.01 to 1 µM | > 5 µM |
| NC(=O)c1ccc2ncc(-c3cc(N4CCN5C(=O)CCCC5C4)ncn3)n2n1 (stereo not shown) [II-727, 3-[6-(6-Oxo-3,4,7,8,9,9a-hexahydro-1H-pyrido[1,2-a]pyrazin-2-yl)pyrimidin-4-yl]imidazo[1,2-b]pyridazine-6-carboxamide] | 0.01 to 1 µM | > 5 µM |
| CC1CN(c2cc(-c3cnc4ccc(C(N)=O)nn34)ncn2)C(C)C(c2cn[nH]c2)N1 (stereo not shown) [II-728, 3-[6-[2,5-Dimethyl-3-(1H-pyrazol-4-yl)piperazin-1-yl]pyrimidin-4-yl]imidazo[1,2-b]pyridazine-6-carboxamide] | 0.01 to 1 µM | > 5 µM |
| CS(=O)(=O)NCC1CCCN(c2cc(-c3cnc4ccc(C(F)F)nn34)c(F)cn2)C1 (stereo not shown) [II-729, N-((1-(4-(6-(Difluoromethyl)imidazo[1,2-b]pyridazin-3-yl)-5-fluoropyridin-2-yl)piperidin-3-yl)methyl)methanesulfonamide] | < 0.01 µM | 0.5 to 5 µM |
| CS(=O)(=O)NCC1CCCN(c2cc(-c3cnc4ccc(C(F)F)nn34)c(Cl)cn2)C1 (stereo not shown) [II-730, N-((1-(5-Chloro-4-(6-(difluoromethyl)imidazo[1,2-b]pyridazin-3-yl)pyridin-2-yl)piperidin-3-yl)methyl)methanesulfonamide] | 0.01 to 1 µM | 0.5 to 5 µM |
| CC(=O)N1CCN(c2cccc(-c3cnc4ccc(C(F)F)nn34)n2)CC1 [II-731, 1-(4-(6-(6-(difluoromethyl)imidazo[1,2-b]pyridazin-3-yl)pyridin-2-yl)piperazin-1-yl)ethan-1-one] | > 1 µM | > 5 µM |
| CS(=O)(=O)NCC1CN(c2cc(-c3cnc4cccnn34)ccn2)CCO1 (stereo not shown) [II-732, N-((4-(4-(imidazo[1,2-b]pyridazin-3-yl)pyridin-2-yl)morpholin-2-yl)methyl)methanesulfonamide] | > 1 µM | > 5 µM |
| Cc1cnc(N2CCCC(CNS(C)(=O)=O)C2)cc1-c1cnc2ccc(C(F)F)nn12 (stereo not shown) [II-733, N-((1-(4-(6-(difluoromethyl)imidazo[1,2-b]pyridazin-3-yl)-5-methylpyridin-2-yl)piperidin-3-yl)methyl)methanesulfonamide] | > 1 µM | > 5 µM |
| CC(=O)NC1CCN(c2cc(-c3cnc4ccc(-c5cccnc5)nn34)ccn2)CC1 [II-735, N-(1-(4-(6-(pyridin-3-yl)imidazo[1,2-b]pyridazin-3-yl)pyridin-2-yl)piperidin-4-yl)acetamide] | > 1 µM | > 5 µM |
| CC(=O)N1CCN(c2cc(-c3cnc4ccc(N5CCC(N)C5)nn34)ccn2)CC1 (stereo not shown) [II-736, 1-(4-(4-(6-(3-aminopyrrolidin-1-yl)imidazo[1,2-b]pyridazin-3-yl)pyridin-2-yl)piperazin-1-yl)ethan-1-one] | > 1 µM | > 5 µM |
| CC(=O)N1CCN(c2cc(-c3cnc4ccc(-c5cccnc5)nn34)ccn2)CC1 [II-737, 1-(4-(4-(6-(pyridin-3-yl)imidazo[1,2-b]pyridazin-3-yl)pyridin-2-yl)piperazin-1-yl)ethan-1-one] | > 1 µM | > 5 µM |
| CC(=O)N1CCN(c2cc(-c3cnc4ccc(N5CCOCC5)nn34)ccn2)CC1 [II-738, 1-(4-(4-(6-morpholinoimidazo[1,2-b]pyridazin-3-yl)pyridin-2-yl)piperazin-1-yl)ethan-1-one] | > 1 µM | > 5 µM |
